Consider four compounds from patent US20250360177A1, “FERMENTATION PRODUCT FOR THE TREATMENT OF INFLAMMATORY DISEASES” (ALFASIGMA S.P.A., priority 2022, published 2025).

One assay relates to IL-10. Kind of assay: IL-10 ELISA in LPS-stimulated RAW264.7 macrophages. To be noted: LPS 24 hours. Type of assay: cell-based. The method, then:
Each solution was centrifuged for 20 min at 2500 rpm, the insoluble residues discarded and the supernatant filtered on 0.22-μm PES filters. […] The cells were divided into 5 groups and each group was treated for 2 hours with […] of each of the Solutions obtained from the plant extracts (Sol. Ex1-Ex5). […] At the end of incubation, the supernatants were collected and analyzed by ELISA assay (Invitrogen kit) to detect the amount of IL-10.
(In general: ELISA stands for enzyme-linked immunosorbent assay.)

The subject of assay [1] is TNF-α, IL-1β and IL-10 gene expression. As to the kind of experiment: Relative quantitative real-time PCR of colonic cells of TNBS-induced colitis mice. Type of assay: in vivo, C57BL/6 mice. As to conditions: Lio-Prob1 12 mg/kg or mesalazine 100 mg/kg orally 4 days. The method, then: RNA of colonic cells of C57BL/6 male mice treated according to Example 8 was isolated with Trizol (Life-technologies). […] BIO 65053). Real-time PCR was performed using SYBR green Master Mix (#1725150, Biorad). GAPDH was used as internal control. The relative transcription mRNA level was calculated.
(Real-time PCR tracks product formation cycle by cycle.)

Assay [2] deals with TNBS-induced ulcerative colitis mouse model. As to the kind of experiment: TNBS-induced ulcerative colitis in mice, plant extract solutions. It is filed as in vivo, C57BL/6 mice. To be noted: TNBS 2 mg/mouse i.r.; 100 mg/kg gavage; day 3. The method, then:
Ulcerative colitis was induced in a mouse model by administration of 2,4,6-trinitrobenzenesulfonic acid (TNBS) (Yang et al., Scientific Reports, 2016 6: 29716). Male C57BL/6 mice aged 6-8 weeks were divided into groups of 8 mice each. Solutions obtained from the plant extracts (Sol. […] Ex-1 (Scutellaria baicalensis Georgi)/600μL/mouse per gavage • Group E: TNBS 2 mg/mouse in 100 μL i.r.+Sol. Ex-2 (Phaseolus radiatus)/[…]/mouse per gavage • Group F: TNBS 2 mg/mouse in 100 μL i.r.+Sol. Ex-3 (Curcuma longa)/600 μL/mouse per gavage • Group G: TNBS 2 mg/mouse in 100 μL i.r.+Sol. Ex-5 (Broccoli sprouts)/600 μL/mouse per gavage. Mice were sacrificed 6 h after the last administration by cervical dislocation.

The test system is the same in assay [3]. As to the kind of experiment: TNBS-induced ulcerative colitis in mice, DAI score and colon length (Example 6). To be noted: TNBS 2 mg/mouse i.r.; 100 mg/kg per gavage. It is filed as in vivo, C57BL/6 mice. The method, then: The efficacy of fermentation products of L. brevis DSM 33682 obtained in the presence of Phaseolus radiatus sprout extract (Lio-Prob1) or absence of the extract (Lio-Prob2) was determined by measurement of DAI score and colonic length. Male C57BL/6 mice (Envigo) aged 6-8 weeks (8 mice/group), ulcerative colitis was induced with 2,4,6-trinitrobenzenesulfonic acid (TNBS) (Yang et al., Scientific Reports, 2016 6:29716). […] Mice were sacrificed by cervical dislocation 6 h after the last administration. The disease activity index, expressed by DAI score, of C57BL/6 mice was measured according to the method reported by Yang et al., Scientific Reports, 2016 6:29716.

The next assay concerns IL-1beta mRNA. As to the kind of experiment: IL-1beta mRNA transcription in LPS-stimulated RAW264.7 macrophages (Real-Time PCR). Type of assay: cell-based. As to conditions: 0.1 mM, LPS 24 hours. The procedure:
The anti-inflammatory activity of the fermentation product in lyophilic form of L. brevis DSM 33682 obtained in the presence of Phaseolus radiatus sprout extract (Lio-Prob1) according to Example 5, and the product obtained without Phaseolus radiatus sprout extract (Lio-Prob2) according to Example 6, were analyzed by means of determination of the amount of IL-1beta mRNA.
3×10^5 Cells/well of RAW264.7 macrophages (ATCC) were seeded on a 24-well plate.
Ten μl of lipopolysaccharide (LPS) from Sigma-Aldrich n.2630 (10 μg/mL) was added to each well and incubated at 37° C. in a 5% CO2 incubator for 24 hours.
At the end of incubation, macrophage RNA was extracted and analysed by Real-Time PCR to detect the gene transcription level of the proinflammatory cytokine IL-1beta, calculated as the mean value for the treated groups compared with macrophages treated with LPS alone. In particular, total RNA was isolated from each sample using the mini RNeasy kit (QiaGen GmbH, Hilden, Germany), and 1ug of total RNA was reverse transcribed by IScript™ cDNA Synthesis Kit (BioRad, Hercules, CA, USA). Real-time PCR was carried out by a BioRad CFX96 Touch™ Real-Time PCR Detection System using SsoAdvanced Universal SYBR Green super Mix (BioRad). The expression level of each mRNA was assessed using the ΔΔCT method, and Gapdh was used as housekeeping gene for normalization. The following primers were used.

Assay [4] concerns TNBS-induced colitis mice. As to the kind of experiment: TNBS-induced colitis in mice, comparison to VSL #3 and E. coli Nissle (Example 12). It is filed as in vivo, C57BL/6 mice. As to conditions: TNBS 2 mg/mouse ir; 100 mg per kg mouse os, 4 days.
Method: C57BL/6 Male mice aged 7-8 weeks (ENVIGO, Italy) were housed under standard laboratory conditions: light/dark cycles (12/12 hr), ambient temperature 20±2° C., 55% relative air humidity and food (Mucedola RF18) and water ad libitum.
Colitis was induced in the mice as previously described, using TNBS (Yang et al., Scientific Reports, 2016 6:29716).
After 3 h of colitis induction, each group of mice was orally administered with the corresponding treatment for 4 days. During the 4-day trial, the mice were routinely inspected for their body mass, and diarrhea. All mice were sacrificed by cervical dislocation for sample collection at the end of day 4.

For `CCCC(=O)O` [Butyrate], the “% IL-10 (vs LPS) ± SD” value in the assay on IL-10 (0.62 mM) turned out to be 268 ± 71%.
As for `CC(=O)O` [Acetate], the “% IL-10 (vs LPS) ± SD” value in the assay on IL-10 (5 mM) is 199 ± 14%.
Take `Nc1ccc(O)c(C(=O)O)c1` [Mesalazine]: the “expression levels of pro-inflammatory genes, including TNF-α and IL-1β (in words)” value in assay [1] (colon of TNBS-induced acute colitis mice) is “reduced the expression levels of pro-inflammatory genes”. In addition, the “expression of IL-10 (in words)” value in assay [1] (colon of TNBS-induced colitis mice) is reported as “increased”. In addition, the results for the “colon length (mm) ± SE” value in assay [2] and in assay [3] were 68 ± 1.9 mm and 66.6 ± 0.5 mm, respectively. Further, the “DAI score ± SE” value in assay [3] came to 1.1 ± 0.5. Besides, the “mRNA IL-1beta transcription inhibition compared to LPS treatment” value with IL-1beta mRNA is listed as 59%. Moreover, the entries for the “% IL-10 (vs LPS) ± SD” value with IL-10 (0.1 mM) and with IL-10 (0.2 mM) were 216 ± 55% and 269 ± 18%, respectively. Moreover, the “BWL body weight loss % max” value in assay [4] is 4%.
Take `CCC(=O)O` [Propionate]: in the assay on IL-10 (10 mM), the “% IL-10 (vs LPS) ± SD” value is given as 135 ± 2%.
